pIC50, pKi: −log10 of the molar value.
Key:
FAAH = details: reported value; cited from earlier work
recombinant human MAGL = target: T1, recombinant human MAGL (Homo sapiens, UniProt Q99685); assay: MAGL assay (glycerol detection, 2-AG as substrate); format: biochemical
T1 construct: expressed in transfected cells; membranes overexpressing MAGL
T1 sequence (Q99685 1-303): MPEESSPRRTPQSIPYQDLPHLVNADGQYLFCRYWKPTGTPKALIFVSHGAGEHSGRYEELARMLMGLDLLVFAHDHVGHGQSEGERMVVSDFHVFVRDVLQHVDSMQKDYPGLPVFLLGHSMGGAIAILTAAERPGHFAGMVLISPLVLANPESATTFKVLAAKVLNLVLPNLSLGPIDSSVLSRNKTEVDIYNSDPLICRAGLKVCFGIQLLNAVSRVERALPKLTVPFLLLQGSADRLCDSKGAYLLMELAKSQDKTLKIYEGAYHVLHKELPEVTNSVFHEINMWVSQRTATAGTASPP
Description: This methodology allows for a more accurate quantification avoiding band overlap (as observed with gel-based assay) and allows screening over a broader range of specified serine hydrolases. Equal isotopic labeling and detection of light and medium peptides from proteins targeted by both ABPs (Figure 2G) were validated. Next, to investigate the selectivity of inventive compound 25 in this chemoproteomic assay was set out. […] In addition, the inventors tested compound 25 in biochemical assays using recombinant human MAGL and in a cannabinoid CB1 receptor radioligand displacement assay. A significant interaction ([…]) with these proteins of the endocannabinoid system could not be found. The CB1 displacement assays were performed as described below.
MAGL assay was performed as described below. Standard assays were performed under similar conditions as for the glycerol detection besed DAGL-α activity assay , but at a final protein concentration of 1.5 µg/mL (0.3 µg MAGL-overexpressing membranes per well) and with 2-arachidonoylglycerol (2-AG) as the substrate. 2-AG was directly added from a stock solution in acetonitrile and no Triton X-100 was added. Fluorescence was measured in 5 min intervals for 60 min. Final assay concentrations: 0.2 U/mL GK, GPO and HRP, 0.125 mM ATP, 10 µM Amplifu™Red, 25 µM 2-AG, 5% DMSO, 0.5% ACN in a total volume of 200 µL.

hDAGL-β = target: T2, hDAGL-β (Homo sapiens, UniProt Q8NCG7); assay: Biochemical assay with para-nitrophenylbutyrate as surrogate substrate on human DAGL-β; details: n=4
T2 sequence (Q8NCG7 1-672): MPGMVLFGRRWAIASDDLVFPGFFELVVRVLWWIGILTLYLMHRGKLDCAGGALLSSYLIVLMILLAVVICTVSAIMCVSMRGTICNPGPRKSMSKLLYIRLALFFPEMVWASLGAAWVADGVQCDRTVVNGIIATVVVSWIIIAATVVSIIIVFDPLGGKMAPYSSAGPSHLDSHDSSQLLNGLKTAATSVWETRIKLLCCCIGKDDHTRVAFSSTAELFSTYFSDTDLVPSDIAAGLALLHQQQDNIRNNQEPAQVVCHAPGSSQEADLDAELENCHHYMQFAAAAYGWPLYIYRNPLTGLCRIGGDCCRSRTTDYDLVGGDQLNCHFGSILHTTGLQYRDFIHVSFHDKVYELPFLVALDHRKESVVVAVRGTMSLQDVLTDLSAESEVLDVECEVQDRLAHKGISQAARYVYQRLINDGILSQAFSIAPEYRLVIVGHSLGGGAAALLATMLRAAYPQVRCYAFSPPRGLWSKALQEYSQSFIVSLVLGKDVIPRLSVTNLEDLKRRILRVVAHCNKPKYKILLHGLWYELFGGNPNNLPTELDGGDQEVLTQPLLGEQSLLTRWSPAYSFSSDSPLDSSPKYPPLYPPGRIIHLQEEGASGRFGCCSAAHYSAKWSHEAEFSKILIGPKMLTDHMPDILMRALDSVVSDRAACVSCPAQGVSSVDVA

hDAGL-α = target: T3, hDAGL-α (Homo sapiens, UniProt Q9Y4D2); assay: Mode of action (reversibility) experiment: size exclusion chromatography, then MB064 labeling; format: biochemical; parameters: expressed in transfected cells; details: pre-incubation at IC80 concentration; remaining activity visualized with MB064; n=3
T3 sequence (Q9Y4D2 1-1042): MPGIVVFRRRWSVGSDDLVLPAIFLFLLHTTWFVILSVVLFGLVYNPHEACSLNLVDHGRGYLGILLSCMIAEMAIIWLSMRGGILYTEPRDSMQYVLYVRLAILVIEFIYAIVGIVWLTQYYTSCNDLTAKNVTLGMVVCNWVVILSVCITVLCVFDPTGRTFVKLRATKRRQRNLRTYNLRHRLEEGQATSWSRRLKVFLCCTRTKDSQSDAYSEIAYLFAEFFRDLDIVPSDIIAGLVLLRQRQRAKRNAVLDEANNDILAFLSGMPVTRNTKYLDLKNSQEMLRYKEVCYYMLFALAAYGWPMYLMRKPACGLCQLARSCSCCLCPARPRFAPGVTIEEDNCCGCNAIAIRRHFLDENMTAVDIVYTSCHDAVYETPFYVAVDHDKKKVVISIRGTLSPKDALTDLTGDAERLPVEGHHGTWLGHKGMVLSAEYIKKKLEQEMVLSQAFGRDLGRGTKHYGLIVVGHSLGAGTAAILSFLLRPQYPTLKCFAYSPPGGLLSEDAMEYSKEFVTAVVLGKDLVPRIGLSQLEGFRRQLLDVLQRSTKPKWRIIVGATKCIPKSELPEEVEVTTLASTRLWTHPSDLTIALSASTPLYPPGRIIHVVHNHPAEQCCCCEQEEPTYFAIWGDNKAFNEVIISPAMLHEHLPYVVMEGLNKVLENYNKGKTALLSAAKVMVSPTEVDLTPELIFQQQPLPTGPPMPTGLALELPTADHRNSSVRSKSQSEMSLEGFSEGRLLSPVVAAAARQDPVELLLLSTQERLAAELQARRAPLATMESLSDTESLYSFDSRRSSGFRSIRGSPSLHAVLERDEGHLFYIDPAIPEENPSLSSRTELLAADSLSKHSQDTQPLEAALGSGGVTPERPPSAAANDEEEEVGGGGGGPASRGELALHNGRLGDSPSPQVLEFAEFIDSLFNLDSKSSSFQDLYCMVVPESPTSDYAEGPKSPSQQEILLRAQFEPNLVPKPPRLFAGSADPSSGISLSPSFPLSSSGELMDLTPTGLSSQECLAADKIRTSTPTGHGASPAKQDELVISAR
Method: To determine the mode of action (reversible versus irreversible) of the inventive compounds, an experiment in which human DAGL-α membranes were pre-incubated at the IC80 concentration of compound 25 or the irreversible DAGL inhibitor KT-109 was performed.

SMILES	FAAH Activity assay reported pKi (FAAH)	pKi (recombinant human MAGL)	pIC50 (hDAGL-β)	recovery of DAGL-α activity after size exclusion chromatography (hDAGL-α)
O=C(CCCCCc1ccccc1)c1nc2ncccc2o1 [Compound 1, 1-(Oxazolo[4,5-b]pyridin-2-yl)-6-phenylhexan-1-one, reference compound]	9.70			
Cc1ccc(-c2cnc3nc(C(=O)CCCCCc4ccccc4)oc3c2)cc1 [Compound 25, 1-(6-(p-Tolyl)oxazolo[4,5-b]pyridin-2-yl)-6-phenylhexan-1-one]		< 5.00	8.10	reversibility

Reference: patent EP3095787A1, “[…] ACTIVE COMPOUNDS AS DAG-LIPASE INHIBITORS” (Universiteit Leiden, priority 2015, dated 2016)
